Experimental data taken from patent publication US20240228474A1, “ANTIBACTERIAL COMPOUND” (DISCUVA LIMITED, priority 2021, published 2024).

What was measured:
[1] = test system: Proteus mirabilis (DSM 4479); assay: MIC by broth microdilution (CLSI); format: cell-based; settings: DSM4479
Experimental: Minimum Inhibitory Concentrations (MICs) versus Escherichia coli (NCTC 13441) and Klebsiella pneumoniae (NCTC 13438) (planktonic bacteria) were determined by the broth microdilution procedure in line with the guidelines of the Clinical and Laboratory Standards Institute (Clinical and Laboratory Standards Institute. Methods for Dilution Antimicrobial Susceptibility Tests for Bacteria That Grow Aerobically, Approved Standard-Eleventh Edition, CLSI document M07, 11 Jan. 2018). The broth dilution method involved a two-fold serial dilution of compounds in 96-well microtitre plates, giving a final concentration range of 0.39-200 μM and a maximum final concentration of 2% DMSO. The bacterial strains tested were Escherichia coli (NCTC 13441) and Klebsiella pneumoniae (NCTC 13438). Strains were grown in cation-adjusted Müller-Hinton broth or on Luria Bertani agar at 37° C. in an ambient atmosphere. The MIC (μM) was determined as the lowest concentration of compound that inhibits growth following a 20-24 hour incubation period.
Minimum Inhibitory Concentrations (MICs) versus Proteus mirabilis (DSM 4479) were determined for compound (I) and comparative compounds (II) and (III) using the methodology outlined above.

[2] = Volume of distribution (Vss) from mouse plasma profiles; format: in vivo; settings: mice, 5 mg/kg IV bolus, 2 compartment model
Experimental: The volume of distribution (Vss) of compound (I) and comparative compounds (II) and (III) was determined from analysis of plasma concentration time profiles obtained from rodent species (mice), following 5 mg/kg IV bolus administration respectively. The volume of distribution was obtained by analysing the rodent plasma profiles for compound (I) and comparative compounds (II) and (III) using a 2 compartment IV bolus model in PK Solver (Excel). The volume of distribution data for compound (I) and comparative compound (II) was collected in separate experiments carried out on different days, and compared in Table 6.

[3] = test system: E. coli BAA-2469 (NDM-1 positive); assay: Murine bacteraemia / bloodstream infection proof-of-concept study, IV bolus; format: in vivo; settings: single dose IV bolus 20 mg/kg, 9 h from initial infection
Experimental: (§1) Compound (I) and comparative compound (III) were evaluated in proof-of-concept studies in murine models for the treatment of a respiratory infection with Gram-negative bacteria of the order Enterobacterales, a bacteraemia or bloodstream infection with Gram-negative bacteria of the order Enterobacterales, and a urinary tract infection with Gram-negative bacteria of the order Enterobacterales. Each dot, triangle or square indicator represents a single mouse. LOD refers to the limit of detection of the bacteria. […] Each of the proof-of-concept studies was carried out separately. By vehicle is meant pharmaceutically acceptable carrier or excipient.
For the proof-of-concept study for the treatment of a bacteraemia or bloodstream infection with Gram-negative bacteria of the order Enterobacterales, CD-1 mice were infected with human urine isolate E. coli BAA-2469 (NDM-1 positive). One hour after infection (‘pre-treatment’ in FIG. 3), a vehicle (20% hydroxypropyl β cyclodextrin) containing no compound (I) or comparative compound (III), or a vehicle (20% hydroxypropyl β cyclodextrin) containing compound (I) or comparative compound (III), was administered by as a single dose IV bolus at 20 mg/kg.

E. coli UT189 = assay: Murine urinary tract infection proof-of-concept study, IV bolus; format: in vivo; settings: IV bolus 20 mg/kg TID over 3 days, 96 h after initial infection
Experimental: as §1, with “excipient. For the proof-of-concept study for the treatment of a urinary tract infection with Enterobacterales, female C3H/HeN mice were infected with E. coli UT189. Twenty-four hours after infection (‘pre-treatment’ in FIGS. 4a-c), a vehicle (20% hydroxypropyl β cyclodextrin) containing no compound (I) or comparative compound (III), or a vehicle (20% hydroxypropyl β cyclodextrin) containing compound (I) or comparative compound (III), was administered by IV bolus of 20 mg/kg, TID (8 hrs apart), over 3 days.” for “excipient.”

[4] = test system: Klebsiella pneumoniae ATCC 43816; assay: Murine respiratory infection proof-of-concept study, IV bolus; format: in vivo; settings: 26 h from initial infection
Experimental: as §1, with “excipient. For the proof-of-concept study for the treatment of a respiratory infection caused or exacerbated by Gram-negative bacteria of the order Enterobacterales, CD-1 mice were infected with Klebsiella pneumoniae ATCC 43816. Two hours after infection (‘pre-treatment’ in FIG. 2), a vehicle (20% hydroxypropyl β cyclodextrin) containing no compound (I) or comparative compound (III), or a vehicle (20% hydroxypropyl β cyclodextrin) containing compound (I) or comparative compound (III), was administered by IV bolus at 20 mg/kg, TID (8 hrs apart), over one day.” for “excipient.”

[5] = Lipophilicity, Log P measured with SiriusT3 (octanol titration); format: physicochemical; settings: octanol / aqueous sample solution
Experimental: Log P values of compound (I) and comparative compound (III) were measured using the SiriusT3 instrument from Sirius Analytical by performing an acid-based titration and measuring the shift in pKa when the sample solution is in contact with an immiscible solvent (octanol). Log P for the comparative compound (II) was calculated using Marvin (physico-chemical calculation software). The lipophilicity data for compound (I) and comparative compounds (II) and (III) was collected in separate experiments carried out on different days, and compared in Table 5.

MIC [1] [µM] | Vd [2] [L/kg] | logP [5] | Compound | reduction of bacterial burden in the blood compared to vehicle ([3]; CD-1 mice) [log] | bacterial burden (CFU) in the blood at end of study [3] | reduction of bacterial burden in the bladder compared to vehicle (E. coli UT189) [log] | reduction of bacterial burden in the urine compared to vehicle (E. coli UT189; female C3H/HeN mice) [log] | reduction of bacterial burden in the lung compared to vehicle ([4]; CD-1 mice, IV bolus 20 mg/kg TID over one day) [log] | CFU value in lung relative to stasis level ([4]; IV bolus 20 mg/kg TID)
> 200 | 7.7 | – | Cc1cc(-c2[nH]c(N)nc2-c2ccc3c(c2)N(C(=O)CN)CCO3)ccn1 [Comparative Compound (II)] | – | – | – | – | – | –
> 200 | 7.9 | 1.03 | Cc1cnccc1-c1[nH]c(N)nc1-c1ccc2c(c1)N(C(=O)CN)CCO2 [Comparative Compound (III), reference compound] | 4.86 | remained on or above the stasis level | 3.71 | 3.36 | 4.16 | remained relatively close to the stasis level
